Residues, ends and D or L forms follow the SMILES beside them. *: point of attachment. Cbz = O=C(OCc1ccccc1)*; CHN2 = [N-]=[N+]=C*; Bn = c1ccc(C*)cc1

This note sets out measurements from patent US6458760B1, “Method for treating tissue damaged from ischemia” (Henry Ford Health System, priority 1998, dated 2002).

In assay [1] the test system is Wistar rats with MCA occlusion. Kind of assay: Stroke model, 3 h MCA occlusion, infarct volume at 7 days. The format is in vivo, rat. The protocol: After anesthesia had been induced in the rat, a catheter was inserted into the femoral vein and tunneled subcutaneously in the posterior neck region. Body temperature was maintained at a constant temperature of 37° C. during surgical procedures. The animals underwent 2 hours of MCA occlusion, and then reperfusion when the suture was withdrawn, and immediately thereafter, the drug was infused for four hours. The animals were killed after a 7-day reperfusion, and the brains were formalin fixed and sliced 6-μm thick into seven coronal sections A-G, and mounted on coated slides. After staining with hematoxylin and eosin, the stroke volume was measured using an image analysis program. The stroke area and the contralateral hemispheric area were calculated by tracing the areas on the computer screen, and the volumes were determined by multiplying the appropriate area by the section interval thickness. The stroke volume is expressed as the percentage of lesion size to the volume of contralateral hemisphere. […]
CP-1 dissolved in 1% DMSO and isotonic saline was given intravenously to Wistar rats (15 μl/min) at a concentration of 50 μM for four hours beginning at the end of three hours of MCA occlusion, in accordance with the protocol described hereinabove. […] All animals which survived 7 days were sacrificed and the infarct volume was measured 7 days after the MCA occlusion. […]

Another assay concerns the target Cathepsin L (Homo sapiens, UniProt P07711). As to the kind of experiment: Cathepsin L inactivation rate, fluorimetric progress curves. The format is biochemical. The note with it: second order inactivation rate constant corrected for substrate; substrate Z-Phe-Arg-AMC; pH 5.4, 30° C. The protocol: (“Tian, et al.”) the contents of which are incorporated by reference. More specifically, the value of kobs is given by the slope of a plot of ln [P]∞−[p]t versus t (time). The apparent second-order rate contact for inactivation, k2app was calculated as kobs/[I]. The inactivation-rates (kobs) in the presence of substrate and for different inhibitor concentrations for calpain, cathepsin B and cathepsin L are determined according to the method of Tian, et al. However, k2app is corrected for the presence of substrate (s) to give the second order rate constant k^12app, calculated as k^12app=k2app (1+[s]/Km).
Cathepsins B and L were preactivated with […] DTT in 50 mM sodium acetate buffer, pH 5.4, 1 mM EDTA for 2 h at 4° C. and assayed in the same buffer with 0.01% Brij [poly(oxyethylene) glycol dodecyl ether]. 5 μM (final concentration) CBZ-Phe-Arg-AMC was used as substrate for both for cathepsins B and L. The inhibitors (0.1-1 μM) and substrate were added to the reaction mixture to incubate for 5 min in a cuvette thermostated at 30° C. Then, approximately 0.4 nM and 0.1 nM final concentration of cathepsin B and cathepsin L, respectively, were used to initiate the reaction. […] The progress curves were analyzed over at least 3 half lives to calculate the rate constants of inactivation in accordance with the procedure described by Crawford, C. Mason, R. W., Wilkström, P., and Shaw, E. in an article entitled “The design of peptidyldiazomethane inhibitors to distinguish between the cysteine proteinases calpain II, cathepsin L and cathepsin B.”, Biochem. J. 1988, 253, 751-758, the contents of which are incorporated by reference. The rates of inactivation of various substrates are tabulated hereinbelow.

The nature of assay [2]: Loss of body weight after MCA occlusion (Example 8). The format is in vivo, rat. On the procedure:
The animal is able to move about and take water as needed. However, animals with severe stroke that are not able to maintain intake of water are supplemented with daily subcutaneous Lactated Ringers solution. Daily body weights are followed to assess nutritional status.
(§1) CP-1 dissolved in 1% DMSO and isotonic saline was given intravenously to Wistar rats (15 μl/min) at a concentration of 50 μM for four hours beginning at the end of three hours of MCA occlusion, in accordance with the protocol described hereinabove. Control animals underwent a similar protocol, but they had injected therein a 1% DMSO/Saline as the vehicle for four hours beginning at the end of a three hour MCA occlusion. All animals which survived 7 days were sacrificed and the infarct volume was measured 7 days after the MCA occlusion.
The % loss of body weight from CP-1 treated animals and the control group on Day 1 and Day 7 are tabulated hereinbelow.

The test system of assay [3] is Wistar rats with MCA occlusion. Kind of assay: Neurological function on four point scale (Bederson) after 3 h MCA occlusion. The format is in vivo, rat. The protocol:
as §1
On the first day and on the seventh day after occlusion, the neurological function was determined on a four point scale (0, 1, 2, 3,) as described in an article by Bederson, et al. in Stroke, 1986, 17:472-476, the contents of which are incorporated by reference.
The rats were placed on large sheet of soft, plastic coated paper (such as counter protection paper) which they could potentially firmly grip with their claws. The tail of the rats were held by hand, and gentle lateral pressure was applied behind the rat's shoulder until it was noticed that the forelimbs slid several inches. This maneuver was repeated several times in each direction. […] (These rats were severely dysfunctional).
These values are the mean score ±SEM of the results from treatment on control animals. P≦0.05 according to the Mann Whitney Rank Sum test.

Chain of Cathepsin L (P07711 114-333, species assumed): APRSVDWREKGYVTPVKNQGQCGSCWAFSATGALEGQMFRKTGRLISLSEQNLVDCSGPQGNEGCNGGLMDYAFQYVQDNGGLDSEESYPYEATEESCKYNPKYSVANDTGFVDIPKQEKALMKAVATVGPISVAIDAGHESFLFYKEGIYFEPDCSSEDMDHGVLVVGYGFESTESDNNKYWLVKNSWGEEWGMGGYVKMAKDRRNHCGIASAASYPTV

On to `[N-]=[N+]=CC(=O)C(COCc1ccccc1)NC(=O)C(Cc1ccccc1)NC(=O)OCc1ccccc1` (stereo not drawn) [CP-1, benzyloxycarbonyl-Phe-Ser(OBz)-CHN2] (Cbz-Phe-Ser(Bn)-CHN2; configuration not given here), for which the “% Hemisphere Infact Volume (% ± SEM)” value in assay [1] (50 μM i.v. for 4 h beginning at end of 3 h MCA occlusion, day 7, control 41.1 ± 2.4, P>0.05) was determined as 39.9 ± 4.1%. The “reducing infarct size” value in assay [1] (50 μM, 3 hour MCA occlusion) is “not effective”. The “Cathepsin L k′2app” value at Cathepsin L is given as 1,000,000 M^−1S^−1. Further, the “% loss of body weight Day 1” value in assay [2] (50 μM i.v. 4 h, Example 8, control 19 ± 2.0) is listed as 16 ± 1.4%. In addition, in assay [2] (50 μM i.v. 4 h, Example 8, control 32 ± 3.0), the “% loss of body weight Day 7” value amounted to 28 ± 3.4%. In addition, the “loss of mean body weight, treated versus control” value in assay [2] (Day 1 and Day 7) is recorded as “no significant difference”. Further, the “Functional Score Day 7” value in assay [3] (50 μM i.v. 4 h after 3 h MCA occlusion, scale 0-3, mean ± SEM, control 1.9 ± 0.3) was determined as 0.9 ± 0.2. Further, the “Functional Score Day 1” value in assay [3] (50 μM i.v. 4 h after 3 h MCA occlusion, scale 0-3, mean ± SEM, control 3 ± 0) was 2.1 ± 0.6. The “reducing the neurological deficits due to the occlusion” value in assay [3] (50 μM, 3 hour MCA occlusion) was “effective in reducing the neurological deficits”.
